Consider eight molecules from US5336687A, “Inhibition of bone loss by 4-aryloxy-5-hydroxy-2(5H)-furanones” (American Home Products Corporation, priority 1993, dated 1994).

In series [1] the test system is Rat Femur. The series can be described thus: Immobilization Dependent Bone Loss in the Rat Femur (ovariectomized rats, unilateral sciatic neurotomy). It is filed as in vivo. The note with it: 20 mg/kg, i.p., 5×/week for 4 weeks. How it is done: This assay was performed according to the procedure described by Kharode Y.P., Kowal D., O'Rourke S., and Hayward M., "Effect of Time and Pharmacologic Intervention on Bone Mineralization," J. Bone Min. Res. 2, Supp.1. (1987).
Bone mass was determined in the contralateral femora from ovariectomized rats which had been subjected to unilateral sciatic nerve severance. After sciatic neurotomy, the rats were treated with test compound for 2 to 4 weeks. The rats were euthanized, the femora were excised, debrided of soft tissue, and then dehydrated. After drying, the mass of each pair of femora was determined by weighing. The % change in bone mass is calculated using the formula: [formula]

For series [2], the system named is Rat Limb Bone. The series can be described thus: 45Ca Release from Rat Limb Bone (inhibition of bone resorption). It is filed as cell-based, rat (Sprague-Dawley CD). The note with it: for minimal effective concentration: concentration required to inhibit bone resorption, from regression analysis, read-out: MIC, Inhibition of Bone Resorption (45Ca release). On the procedure: Timed pregnant Sprague-Dawley CD rats (Charles River) are administered 100 uCi^45 CaCl2 (NEN calcium-45 NEZ-013) in 100 μl of 0.9% saline, subcutaneously, on day 18 of gestation. The rats are sacrificed the following day by asphyxiation. […] The modified BGJb media is obtained without salts glucose or bicarbonate and is supplemented before use with 0.1 mM MgCl2, 1.25 mM CaCl2, 5.3 mM KCl, 0.7 mM MgSO4, 130 mM NaCl, 1.0 mM NaH2 PO4, 1 g/1 glucose, 50 mg/1 Na acetate and 100 U/ml penicillin G. The medium is sterilized by passage through a […] filter (Nalge). Under a dissecting microscope, the bones are gently cleaned of adherent tissue and the cartilagenous ends removed. Step (2): Incubation and Drug Treatment The midshafts are placed, individually, on 3×3 mm squares of filter paper (Gelman […] filters; […] pore size) which rest on stainless steel screens in wells of 24-well culture plates containing 0.5 ml of preincubation medium. The preincubation medium is brought to 37 deg. C. prior to transfer of bones. The preincubation medium consists of the modified BGJb medium (with salts and glucose as above), pH 7.3, containing 29 mM NaHCO3. After incubation for 18-24 hours at 37° C. in 5% CO2, the bones are transferred on their screen/filter paper supports to new plates containing, in a total volume of 0.5 ml/well at 37° C., the test compound diluted in preincubation medium supplemented with 15% heat inactivated horse serum (Gibco No. 230-6050), pH 7.3, with or without a bone resorption stimulating agent (parathyroid hormone [PTH]). For compounds that require nonaqueous solvents, dilutions are made from the appropriate stock solution with medium. In these instances, basal and bone resorption stimulated controls exposed to an equivalent concentration of the vehicle are included. An additional group of bones that have been subjected to boiling for 1 hour are used to establish background, non cell mediated, exchange of ^45 Ca. The right ulna and radius from each fetus are used. Both bones are subjected to the same treatment and each treatment group consists of bones from 4 or more fetuses. Treatments are randomly assigned using a preclinical statistics program (PS-ALLOC). After a 48 hour incubation at 37° C. in 5% CO2, the bones are removed from the medium and extracted in 0.5 ml of 0.1N HCl for 1 or more days. Duplicate 150 μl aliquots of the incubation medium and the bone extract are analyzed for ^45 Ca radioactivity in 5 ml of liquid scintillation cocktail. The percentage of bone ^45 Ca released into the medium is determined as follows: [formula] Results are normally expressed as the ratio of the percent ^45 Ca release of the experimental group verses the appropriate vehicle control. […] A regression analysis is calculated for dose response and the concentration of test compound required to inhibit bone resorption (^45 Ca release) is reported (Table II).

For series [3] the following is noted: cited from earlier work.
Where [4] appears, read: Rattus norvegicus, 48 hour incubation at 37° C.

≈ marks a conversion by molar mass, not a printed value.

For `O=C1C=C(Oc2ccc(-c3ccccc3)cc2)C(O)O1` (stereo not drawn) [Example 1, 4-([1,1'-Biphenyl]-4-yloxy)-5-hydroxy-2(5H)-furanone], the “% Change in Bone Mass” value in series [1] is 4.8 ± 0.6%. In series [2] (setting [4]), the minimal effective concentration is 10 µg/mL.

`CCCCCCCCc1ccc(OC2=CC(=O)OC2O)cc1` (stereo not drawn) [Example 3, 4-(4-Octylphenoxy)-5-hydroxy-2(5H)-furanone]: the minimal effective concentration in series [2] (setting [4]) stood at 10 µg/mL.

Regarding `O=C1C=C(Oc2ccc(C3CCCC3)cc2)C(O)O1` (stereo not drawn) [Example 4, 4-(4-Cyclopentylphenoxy)-5-hydroxy-2(5H)-furanone], in series [2] (setting [4]), the minimal effective concentration worked out at 1 µg/mL.

In general, IC50 refers to the midpoint of a concentration-inhibition curve. A lower IC50 goes with higher potency. For `O=C1C=C(Oc2ccc(C(F)(F)F)cc2)C(O)O1` (stereo not drawn) [Example 5, 4-(4-Trifluoromethylphenoxy)-5-hydroxy-2(5H)-furanone], 3.5 µg/mL (≈ 13.5 µM) corresponded to half-maximal inhibition in series [2] (Rattus norvegicus, 48 hour incubation at 37° C., printed in the MIC (μg/mL) column) (IC50).

Turning to `O=C1C=C(Oc2ccc(Sc3ccccc3)cc2)C(O)O1` (stereo not drawn) [Example 7, 4-[4-thiophenyl-1-phenoxy]-5-hydroxy-2(5H)-furanone], the minimal effective concentration in series [2] (setting [4]) turned out to be 10 µg/mL.

`[F-].[Na+]` [sodium fluoride]: in series [3] (in vivo), the bone growth quality result is given as “irregular”, the fracture incidence entry was “does not appear to be significantly lowered” and the “mitogenic activity for osteoblasts” value is given as “mitogenic for osteoblasts”. The bone density increase in series [3] (may result in increase up to 8-10% a year) is 8-10 % a year.

In the case of Estrogen, the side effects entry in series [3] (in vivo) is reported as “increased risk of certain types of cancers”.

B1: PTH: bone resorption stimulating agent (parathyroid hormone [PTH]) (protein, UniProt P01270 32-115, looked up)
Parathyroid hormone: SVSEIQLMHNLGKHLNSMERVEWLRKKLQDVHNFVALGAPLAPRDAGSQRPRKKEDNVLVESHEKSLGEADKADVNVLTKAKSQ
As for B1, the “ratio of the percent 45Ca release vs vehicle control (basal = 1.00)” value in series [2] (PTH 10^-7 M, bone resorption agent, 'commonly') is 1.3-2.0.
